Experimental data reported in PMC12131194, “Rational design, synthesis, and evaluation of novel polypharmacological compounds targeting NaV1.5, KV1.5, and K2P channels for atrial fibrillation” (The Journal of Biological Chemistry, 2025).

Test system: human atrial cardiomyocytes from patients with sinus rhythm (SR)
Assay: Patch-clamp action potential recordings, atrial cardiomyocytes of sinus rhythm patients
Assay type: cell-based
Experimental: A total of 10 patients with sinus rhythm (SR) (N = 5) or atrial fibrillation (AF) (N = 5) undergoing open heart surgery for coronary artery bypass grafting, heart valve replacement or heart transplantation were included in the study (Table S7). A written informed consent was given by all patients. The study protocol involving human tissue samples was approved by the responsible Ethics Committee of the Medical Faculty of Heidelberg University (Germany; S-017/2013) and was conducted in accordance with the 1964 Declaration of Helsinki.
The right atrial human tissue samples were transported in chilled Ca^2+-free solution (100 mM NaCl, 10 mM KCl, 1.2 mM KH2PO4, 5 mM MgSO4, 50 mM taurine, 5 mM 3-(N-morpholino)propanesulfonic acid (MOPS), 30 mM 2,3-butanedione monoxime and 20 mM glucose, pH 7.0 with NaOH). After dissection into small chunks, the samples were rinsed for 5 minutes with calcium-free Tyrode's solution, which was oxygenated with 100% O2 at 37 °C. The samples were then digested with collagenase type I (288 U/ml; Worthington) and protease type XXIV (5 mg/ml; Sigma-Aldrich, Steinheim, Germany) for 10 to 15 min, followed by an increase in calcium concentration to 0.2 mM. After an additional 35 min of agitation in protease-free solution, rod-shaped single cardiomyocytes were harvested. The suspension was centrifuged, and the cells were resuspended in storage (“Kraftbrühe”, KB) medium (20 mM KCl, 10 mM KH2PO4, 25 mM glucose, 40 mM D-Mannitol, 70 mM K glutamate, 10 mM β-hydroxybutyrate, 20 mM taurine, 10 mM ethylene glycol tetraacetic acid (EGTA), and 1% albumin) until usage in patch-clamp experiments.
Patch-clamp glass pipettes were fabricated from borosilicate glass (1B120F-4; World Precision Instruments). After back-filling with patch-clamp internal solution (134 mM K gluconate, 6 mM NaCl, 1.2 mM MgCl2, 1 mM Mg-ATP, 10 mM HEPES, pH 7.2 with KOH), tip resistances ranged from 5 to 10 MΩ. All experiments were carried out at room temperature under constant superfusion with patch-clamp extracellular solution containing 137 mM NaCl, 5.4 mM KCl, 1 mM MgCl2, 2 mM CaCl2, 10 mM HEPES, 10 mM glucose (pH 7.3 with NaOH). AP-recordings were performed in current clamp mode: The holding current was adjusted such that the cell’s resting membrane potential was approximately −70 mV at baseline. APs were induced by short (5 ms) depolarizing current pulses at a rate of 0.5 Hz. Data was not adjusted for potential differences caused by liquid junctions, and no leak subtraction was performed.
Data acquisition and analysis were performed using the pCLAMP10 software (Axon Instruments) and statistical analysis was done using Prism 8 (GraphPad Software). Data is presented as the mean ± standard error of the mean (SEM). Statistical comparisons were made using Dunnett’s post hoc test. A p value of < 0.05 was considered significant.

[1] = SR, 1, 6.25 and 12.5 μM, significant at 12.5 μM (p < 0.05)

Compound: CCCCN(CCCC)CC(=O)Nc1ccc(OC)cc1OC [Compound 6f, 2-(dibutylamine)-N-(2,4-dimethoxiphenyl)acetamide]
- Resting membrane potential (RMP) (SR, 6.25 μM): slight increase
- APD50 vs baseline (SR, 1, 6.25 and 12.5 μM): only minor effects
- APD90 vs baseline (SR, 1, 6.25 and 12.5 μM): only minor effects
- Action potential amplitude (APA) vs baseline [1]: concentration-dependent decrease
- Maximal upstroke velocity (dV/dtmax) vs baseline [1]: concentration-dependent decrease
